Assay [1] deals with C2BBe1 (Colorectal Carcinoma). The experiment in a line: Bliss excess, mean over the matrix (fraction); higher = more synergy. The procedure, abridged: (§1)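 Cell lines grown in DMEM/F12 or RPMI with 10% FBS were plated in 1536-well plates and held 24 hours at 37°C, 5% CO2 before 72 hours of exposure to two-drug dose matrices, with DMSO typically at 0.2%. CellTiter-Glo 2.0 luminescence gave viability, which was converted to inhibition. Vehicle wells were set to 0 and blank wells to 1. Combination Emax is the second-highest inhibition in the matrix, and Bliss excess is the observed combination effect minus the expected EA + EB − EA·EB, where EA and EB are the single-agent effects.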

The test system of assay [2] is TOV-21G (Ovarian Carcinoma). The assay is described as above. In outline:
as §1

Assay [3] has as its system NCI-H1648 (Lung Adenocarcinoma). The description is as above. The procedure, abridged: as §1
Assay [4] concerns SNU-1 (Gastric Carcinoma). The description is as above. The procedure, abridged:
as §1

The subject of assay [5] is TK (B-Cell Non-Hodgkin's Lymphoma). Described as above. The procedure, abridged: as §1
The next assay concerns SK-N-DZ (Neuroblastoma). The assay is described as above. In outline: as §1
The test system of assay [6] is SCC90 (Head and Neck Carcinoma). The description is as above. The procedure, abridged:
as §1

In assay [7] the test system is JURL-MK1 (Chronic Myelogenous Leukemia). Described as above. In outline: as §1
Assay [8] relates to HT-1197 (Bladder Carcinoma). Described as above. The procedure, abridged:
as §1

For assay [9], the system named is ATN-1 (T-Lymphoblastic Leukemia). The assay is described as above. The procedure, abridged: as §1
A further assay concerns DK-MG (Glioblastoma). The description is as above. The procedure, abridged:
as §1

The test system of assay [10] is TOV-21G (Ovarian Carcinoma). The experiment in a line: combination Emax (second highest fraction inhibited in the dose matrix, 72 h); higher = more inhibition; extreme values may be limits of the assay. The procedure, abridged:
as §1

For assay [11], the system named is TK (B-Cell Non-Hodgkin's Lymphoma). Described as above. The procedure, abridged: as §1
In assay [12] the test system is Daudi (Burkitt's Lymphoma). Described as above. In outline: as §1
The subject of another assay is HT-144 (Melanoma). The description is as above. The procedure, abridged: as §1
Assay [13] concerns HT-1197 (Bladder Carcinoma). The description is as above. In outline: as §1
Assay [14] deals with RS4-11 (B-Lymphoblastic Leukemia). The assay is described as above. The procedure, abridged:
as §1

Assay [15] concerns SUP-HD1 (Hodgkin's Lymphoma). The description is as above. In outline:
as §1

Assay [16] relates to NTERA-2-cl-D1 (Other Solid Carcinomas). The description is as above. The procedure, abridged: as §1
Assay [17] concerns NCI-H835 (Other Solid Carcinomas). Nature of the assay: Bliss excess, mean over the matrix (fraction); higher = more synergy. The procedure, abridged:
as §1
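Throughout, for Bliss excess, mean over the matrix: after 72 h of two-drug dosing.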

On to `CN(CCO)CC[C@H](CSc1ccccc1)Nc1ccc(S(=O)(=O)NC(=O)c2ccc(N3CCC([C@@H](O)c4ccccc4-c4ccc(Cl)cc4)CC3)cc2)cc1S(=O)(=O)C(F)(F)F` [AZD4320] + C1CN(CCC1(C(=O)N[C@@H](CCO)C2=CC=C(C=C2)Cl)N)C3=NC=NC4=C3C=CN4 [Capivasertib] (first compound max 1 µM, 7x7, partner max 3 µM), for which the Bliss excess in assay [1] was -0.0214; in assay [2] it was -0.0429; in assay [3], -0.067; in assay [4] it was -0.0441; in assay [5] it was 0.0106; in the assay with SK-N-DZ (Neuroblastoma) it was -0.0417. The Bliss excess in [6] was -0.0306; in assay [7], -0.07; in [8] it was 0.0311; in [9], -0.0802; with DK-MG (Glioblastoma) it was -0.0847. The “combination Emax” value in [10] was found to be 0.688; in assay [11], 0.97; in assay [12], 0.16; with HT-144 (Melanoma), 0.387; in assay [13] it was 0.321; in [14], 1. In addition, the figures for the “combination Emax” value in assay [15] and in [16] were 0.959 and 0.409, respectively.
With `CN(CCO)CC[C@H](CSc1ccccc1)Nc1ccc(S(=O)(=O)NC(=O)c2ccc(N3CCC([C@@H](O)c4ccccc4-c4ccc(Cl)cc4)CC3)cc2)cc1S(=O)(=O)C(F)(F)F` [AZD4320] + CC(=O)O[C@H]1C(=O)[C@@]2(C)[C@H]([C@H](OC(=O)c3ccccc3)[C@]3(O)C[C@H](OC(=O)[C@H](O)[C@@H](NC(=O)c4ccccc4)c4ccccc4)C(C)=C1C3(C)C)[C@]1(OC(C)=O)CO[C@@H]1C[C@@H]2O [Paclitaxel] (first compound max 1 µM, 7x7, partner max 3 µM), the Bliss excess in [3] is -0.0009; in assay [17] it was 0.199. Further, the “combination Emax” value in assay [16] is 0.754.
Turning to `CN(CCO)CC[C@H](CSc1ccccc1)Nc1ccc(S(=O)(=O)NC(=O)c2ccc(N3CCC([C@@H](O)c4ccccc4-c4ccc(Cl)cc4)CC3)cc2)cc1S(=O)(=O)C(F)(F)F` [AZD4320] + CCN(CCO)CCCOc1ccc2c(Nc3cc(CC(=O)Nc4cccc(F)c4)[nH]n3)ncnc2c1 [AZD2811] (first compound max 1 µM, 7x7, partner max 1 µM), the Bliss excess in assay [1] was -0.0326; in assay [2], -0.0177; in [3], 0.0065; in [4] it was 0.0461; in assay [5], 0.129; with SK-N-DZ (Neuroblastoma) it was 0.0087. Besides, the Bliss excess is 0.134 in assay [6]; 0.0346 in [7]; -0.016 in assay [8]; 0.0082 in [9]; -0.0213 with DK-MG (Glioblastoma). Besides, the “combination Emax” value in assay [10] was found to be 0.476; in assay [11], 0.993; in assay [12], 0.351; in the assay on HT-144 (Melanoma) it was 0.245; in assay [13], 0.241; in [14] it was 1. Also, the “combination Emax” value in assay [15] is 0.966; in assay [16], 0.921.
On to `CN(CCO)CC[C@H](CSc1ccccc1)Nc1ccc(S(=O)(=O)NC(=O)c2ccc(N3CCC([C@@H](O)c4ccccc4-c4ccc(Cl)cc4)CC3)cc2)cc1S(=O)(=O)C(F)(F)F` [AZD4320] + C[C@@H]1COCCN1C2=NC(=NC(=C2)C3(CC3)[S@](=N)(=O)C)C4=C5C=CNC5=NC=C4 [AZD6738] (first compound max 1 µM, 7x7, partner max 10 µM), for which the Bliss excess is -0.14 in assay [1]; -0.0224 in assay [2]; -0.0523 in [3]; -0.0343 in [4]; 0.0338 in assay [5]; -0.0559 in the assay on SK-N-DZ (Neuroblastoma). Besides, the Bliss excess was 0.019 in assay [6]; -0.0278 in assay [7]; -0.0672 in assay [8]; 0.0273 in assay [9]; -0.0439 with DK-MG (Glioblastoma). Further, the “combination Emax” value in assay [10] is 0.824; in assay [11], 1; in assay [12], 0.65; in the assay with HT-144 (Melanoma) it was 0.765; in [13] it was 0.443; in assay [14], 1. In addition, the “combination Emax” value in [15] stood at 0.98.
Regarding `CN(CCO)CC[C@H](CSc1ccccc1)Nc1ccc(S(=O)(=O)NC(=O)c2ccc(N3CCC([C@@H](O)c4ccccc4-c4ccc(Cl)cc4)CC3)cc2)cc1S(=O)(=O)C(F)(F)F` [AZD4320] + C[C@@H](Nc1cc(F)cc(F)c1)c1cc(C(=O)N(C)C)cc2c(=O)cc(N3CCOCC3)oc12 [AZD8186] (first compound max 1 µM, 7x7, partner max 3 µM), the Bliss excess in [1] is 0.0231; in assay [2], -0.0083; in assay [3] it was 0.0323; in [4], -0.0024; in assay [5] it was 0.0312; in the assay with SK-N-DZ (Neuroblastoma), -0.0302. Also, the Bliss excess was 0.0276 in [6]; 0.0149 in assay [7]; 0.0598 in [8]; -0.0214 in assay [9]; -0.0164 in the assay on DK-MG (Glioblastoma). Also, the “combination Emax” value in assay [10] came to 0.37; in assay [11] it was 0.999; in [12], 0.771; with HT-144 (Melanoma), 0.455; in assay [13], 0.319; in assay [14] it was 1. Moreover, the figures for the “combination Emax” value in [15] and in assay [16] were 0.96 and 0.976, respectively.

The values are drawn from the supplement of paper PMC11061612.
